# Experimental data published in US20240122957A1, “USE OF NICOTINAMIDE MONONUCLEOTIDE (NMN) FOR THE PREVENTION AND/OR TREATMENT OF RHEUMATOID ARTHRITIS, AND CORRESPONDING COMPOSITIONS” (NUVAMID SA, priority 2019, published 2024).
# “Also recorded” adds a separate entry of the source. Read-outs that look alike come from different tables or passages of the source.
# Key:
# [1] = test system: C57BL6/J mice treated with K/BxN serum (RA model); experiment: K/BxN serum-induced RA model in mice (clinical score, paw thickness, paw photographs); type: in vivo
# Description: Here, NMN was used in zwitterionic form. […] Dexamethasone was administered subcutaneously.
# [2] = in vivo
# Description: (§1) In brief, 8-week-old female C57BL6/J mice, weighing between 18-20 g on day 0 of the experiments, were divided into 4 group of 10 mice each: (i) a control group, in which the mice were treated with vehicle, i.e. a 0.9% NaCl solution (10 mL/kg), marked ‘Vehicle’; (ii) a group of mice treated with K/BxN serum (10 mL/kg), marked ‘KBxN’; (iii) a group of mice treated with K/BxN serum+dexamethasone (1 mg/kg), marked ‘KBxN+dexamethasone’; and (iv) a group of mice treated with K/BxN serum+NMN (185 mg/kg), marked ‘KBxN+NMN’.
# (§2) The administration of this serum induced chronic joint inflammation in mice in order to mimic RA. […] Here, NMN was used in zwitterionic form. KBxN serum and NMN were administered intraperitoneally to the nice. Dexamethasone was administered subcutaneously.
# (§3) The mice were treated for 9 days under the conditions set forth supra. Photos of the paws of the mice were taken on the 6th day of treatment. […] The clinical score and weight of the mice were measured daily. The clinical score was determined by measuring the thickness of each of the front and rear paws of the mice, and adding the associated score according to table 1 infra:
# (§4) The statistical analysis of the results was carried out using two-factor ANOVA combined with the Dunnett multiple comparison test.
# [3] = Weight and tolerance of mice in the K/BxN serum RA model
# Description: as §1, §2, §3, §4
Structure (SMILES),"paw swelling (photographs of the paws) ([1]; day 6 of treatment, compared to mouse treated with K/BxN, FIG. 4)","average paw thickness (ankle joint inflammation) ([1]; versus KBxN group, NMN 185 mg/kg intraperitoneally, dexamethasone 1 mg/kg subcutaneously, FIG. 3)","average clinical score ([1]; versus KBxN group, NMN 185 mg/kg intraperitoneally, dexamethasone 1 mg/kg subcutaneously, measured daily, 9 days, FIG. 2)",paw appearance compared to mouse treated with vehicle (photographs) [2],"tolerance ([3]; K/BxN serum-treated mice, NMN 185 mg/kg intraperitoneally, 9 days, FIG. 1)","paw appearance compared to mouse treated with vehicle (photographs) ([3]; day 6 of treatment, FIG. 4)","average weight of mice (weight loss) ([3]; relative to KBxN group, NMN 185 mg/kg intraperitoneally, dexamethasone 1 mg/kg subcutaneously, 9 days, FIG. 1)"
"NC(=O)c1ccc[n+]([C@@H]2O[C@H](COP(=O)([O-])O)[C@@H](O)[C@H]2O)c1 [NMN, nicotinamide mononucleotide]",substantially reduces paw swelling,significantly reduced ankle joint inflammation starting on day 5,significant reduction in clinical score starting on day 5; also recorded: pronounced starting on day 8,volume similar to that of the mouse treated with vehicle,well tolerated,,
C[C@@H]1C[C@H]2[C@@H]3CCC4=CC(=O)C=C[C@]4(C)[C@@]3(F)[C@@H](O)C[C@]2(C)[C@@]1(O)C(=O)CO [dexamethasone],,,,,,much more slender than that of the mouse treated with vehicle,additional and significant weight loss
